One compound from patent US11660291B2, “IL-8 inhibitors for use in the treatment of some sarcomas” (Dompe' Farmaceutici S.P.A., priority 2017, dated 2023) can be followed below.

In one assay the test system is pFAK. In words: PD analysis in lung tissue, IHC for pFAK. The format is in vivo, mouse. The procedure:
Mice treated with injections of either DF2156A or sc144 daily were euthanized 24 hours subsequent to their 14th dose of drug. Lungs harvested from those mice were processed using standard FFPE, then sectioned and stained with IHC for either pFAK (downstream of IL-8) or pSTAT3 (downstream of IL-6).
To evaluate the functional importance of IL-6 and IL-8 pathways to OS lung metastasis, the present inventors used the xenograft models. Balb-SCID mice inoculated via tail vein with 1×10^6 luciferase-labeled OS-17 cells received treatment with sc144 (the gp130 inhibitor), DF2156A (the CXCR1/2 inhibitor), or both. Mice continued to receive treatment for 42 days, after which treatment stopped. Intravital imaging for in vivo assessment of tumor burden was performed at 14 and 24 days using standard bioluminescent techniques. […] Two mice from each single-agent treatment group were euthanized 24 hours after the 14th dose of drug to perform pharmacodynamics (PD) assessment of target inhibition.

For the next assay, the system named is OS-17 cells. The experiment in a line: Transwell migration and invasion assays, serum as chemoattractant, small molecule inhibitors. Type of assay: cell-based, human. Conditions: 24 hours. The method, then: OS cells were cultured on a transwell chamber membrane, then subjected transferred to a chamber containing RPMI with 2.5% FBS (pos ctl) or RPMI alone (neg ctl). Other wells containing 2.5% FBS in the bottom chamber were treated with 1 uM sc144, 10 nM D[…], or both. After 24 hours, top chambers were scraped clean, membranes stained and cells counted. Transwell migration and invasion assays. 1×10^4 OS cells were plated into transwell inserts (either Falcon #353097 for migration or Corning #354483 for Matrigel invasion assays) containing appropriate chemotactic factors. After 24 hours of incubation, transwells were drained and upper chambers/membrane upper surfaces scraped using a polyester swab. Membranes were stained using a Dif-Quik Stain Set (Siemens #B4132-1A) and dried, then imaged on an inverted microscope. Cells were quantified using Adobe Photoshop counting tools. For experiments involving IL-6 and IL-8 chemotaxis, media contained 1% FBS in both chambers, with recombinant protein added to the bottom chamber to make 50 ng/ml IL6 (BioLegend #570804) or 100 ng/ml IL-8 (BioLegend #574204). For experiments using serum as a chemoattractant, top chambers contained RPMI only, while bottom chambers contained 1% or 2.5% serum. Where noted, 20 ug/ml of neutralizing antibodies to either IL6 (Abcam #AB6672), IL-8 (Abcam #AB18672), or both were added to both upper and lower chambers. […]

“Also recorded” adds a separate entry of the source.

For the compound `C[C@@H](C(=O)NS(C)(=O)=O)c1ccc(OS(=O)(=O)C(F)(F)F)cc1` [DF2156A], the “pFAK IHC staining in lung (target inhibition, downstream of IL-8)” value with pFAK (24 hours after the 14th daily dose (dosing trough)) was “sustained target inhibition; also recorded: reduced the amount of activation seen”. The “number of infiltrating cells in lung” value with pFAK (24 hours after the 14th daily dose (trough concentrations)) is “reduced”. Also, the “directional migration and invasion” value in the assay with OS-17 cells (serum (2.5% FBS) as chemoattractant, 1 uM sc144, 10 nM DF2156A (FIG. 2)) was “suffices to prevent directional migration and invasion”. In the assay with OS-17 cells (serum as chemoattractant, transwell), the “amount of migration of OS cells” value was “significantly decreased the amount of migration”.
